# Data: US20130296427A1, “NERAMEXANE FOR THE TREATMENT OR PREVENTION OF TINNITUS RELATED WITH STRESS OR ACUTE HEARING LOSS” (MERZ PHARMA GmbH & CO. KGaA, priority 2011, published 2013)
# Test system: subjects with tinnitus caused by acute hearing loss, stress and other reasons
# Assay: Two double-blind, randomized, placebo-controlled 17-week studies of neramexane mesylate in tinnitus; change in TBF-12 total score
# Format: in vivo, human
# Settings: FAS-LOCF; for Change in the TBF-12 total score from baseline to Week 17/EOT, mean (SD): neramexane mesylate 50 or 75 mg/d, 17 weeks; for LSmean [ner − plac], estimated difference Neramexane − Placebo in change of TBF-12 total score, adjusted for covariates from ANCOVA: Week 17/EOT, negative = superior to placebo
# Method: The objective was to assess the efficacy of neramexane as a treatment for tinnitus. The primary objectives of these two independent 17 weeks double-blind, randomized placebo-controlled studies were to compare the efficacy, tolerability and safety of neramexane mesylate at two different, weight-adapted dosages (50 or 75 mg/d) with placebo in subjects with tinnitus caused acute hearing loss, stress and other reasons.
# In two independent, double-blind, multicenter, randomized, placebo-controlled, parallel-group studies, the efficacy of neramexane in subjects suffering from tinnitus caused by acute hearing loss, stress and other reasons were assessed.
# In both studies, subjects were treated for 17 weeks with neramexane or placebo including a four-resp. five-week up-titration period, depending on study drug dose.
# Patients with a target daily dose of 50 mg neramexane mesylate (<90 kg body weight) were to reach steady state after four weeks, patients with a target total daily dose of 75 mg neramexane mesylate 90 kg body weight) were to reach steady state after five weeks of treatment. For patients who experienced dose limiting adverse events with the 75 mg dose, the dosage was reduced by switching the patient to 50 mg/day. Patients unable to tolerate a minimum dosage of 50 mg/day discontinued.
# Patients' eligibility for the studies was evaluated via a check of inclusion/exclusion criteria. The subject completed a Tinnitus-Beeinträchtigungs-Fragebogen (TBF-12=Tinnitus Handicap Inventory (THI-12)) (i.e., a 12-item modified and validated version (Greimel K V et al., Tinnitus-Beeinträchtigungs-Fragebogen (TBF-12). Manual. Frankfurt am Main: Swets & Zeitlinger B.V.; 2000) of the 25-item Tinnitus Handicap Inventory or THI (Newman C W, et al. Development of the Tinnitus Handicap Inventory. Arch Otolaryngol Head Neck Surg 1996; 122(2): 143-148; Newman C W, et al. Psychometric adequacy of the Tinnitus Handicap Inventory (THI) for evaluating treatment outcome. J Am Acad Audiol 1998; 9(2): 153-160.)). The TBF-12 items can be grouped in 2 factorial scores: an emotional-cognitive and a functional-communicational factor. At Visit 1 patients also completed a Tinnitus Rating Scale (TRS, Likert scores on Tinnitus Loudness, Tinnitus Impact on Life, and Tinnitus Annoyance), and the Hospital Anxiety and Depression Scale Audiology/psychoacoustic measurements were performed unless results from previous examinations performed no more than one year prior to Screening were available.
# Neramexane mesylate immediate release tablets (12.5 mg and 25 mg, the manufacture thereof being disclosed in WO 2009/033649, whose respective content is incorporated herein by reference) and matching placebo tablets are administered as film coated tablets.
# Primary Outcome • The change in TBF-12 total score from baseline (Visit 2) to the endpoint visit (Visit 7, i.e. Week 17 or end of treatment) was the primary efficacy endpoint in these studies.
# All efficacy analyses were performed on the full analysis set (FAS) using the last-observation-carried-forward (LOCF) approach. For sensitivity purposes an analysis of the per-protocol set and of observed cases was performed additionally. All statistical tests used for testing the primary efficacy (confirmatory testing) and secondary efficacy criteria (exploratory), and all other statistical tests used for exploratory analyses were two-sided hypothesis tests performed at the 5% significance level. For all variables standard descriptive statistics were calculated.
# Change from baseline (Visit 2) to Week 17 in TBF-12 total score was analyzed using an ANCOVA model with treatment group, gender and country as factors and baseline TBF-12 total score as covariate.
structure (smiles),measurement,setting,value
"CC1(C)CC(C)(C)CC(C)(N)C1 [Neramexane, 1-amino-1,3,3,5,5-pentamethylcyclohexane]","Change in the TBF-12 total score from baseline to Week 17/EOT, mean (SD)","tinnitus caused by acute hearing loss, N=34",34/−3.1 ± 5.0
same,"LSmean [ner − plac], estimated difference Neramexane − Placebo in change of TBF-12 total score, adjusted for covariates from ANCOVA","tinnitus caused by acute hearing loss, P-value 0.0162",−3.9
same,"Change in the TBF-12 total score from baseline to Week 17/EOT, mean (SD)","tinnitus caused by other reasons, N=323",323/−2.4 ± 4.1
same,"LSmean [ner − plac], estimated difference Neramexane − Placebo in change of TBF-12 total score, adjusted for covariates from ANCOVA","tinnitus caused by other reasons, P-value 0.5969",0.2
same,"Change in the TBF-12 total score from baseline to Week 17/EOT, mean (SD)","tinnitus caused by stress, N=41",41/−3.4 ± 4.2
same,"LSmean [ner − plac], estimated difference Neramexane − Placebo in change of TBF-12 total score, adjusted for covariates from ANCOVA","tinnitus caused by stress, P-value 0.0094",−2.3
